Measured values as given in patent publication US20110217265A1, “Screening for Inhibitors of HCV Amphipathic Helix (AH) Function” (priority 2008, published 2011).

Legend:
2a HCV RNA replicon = 2a HCV RNA replicon assay (FL-J6/JFH-5'C19Rluc2AUbi, luciferase); type: cell-based, Hepatitis C Virus genotype 2a; conditions: Hepatitis C virus, read-out: 2a (%) Percent of virus activity remaining in the presence of the compound
Excerpt: Plasmids. Bart79I, a high-efficiency subgenomic replicon of HCV (28), harbors the neomycin resistance gene (neo) and the HCV nonstructural proteins. The Bart-Luciferase plasmid, Bart79I-luc, was cloned from the Bart791 parent (29) and the pGL3-Basic parent (Promega). In brief, a NotI site was introduced after the 15th amino acid of Core in Bart791 using PCR mutagenesis. The plasmid pcDNA3.1-NS4B, which encodes the Con1 NS4B sequence and was used to study the protein stability of the wild type and mutant NS4Bs, was described previously. To introduce the M2 mutation into the 4BAH2 of plasmids encoding HCV replicons or NS4B, the nucleotide sequence GCG that encodes for alanine at NS4B amino acid position 51 was changed to GAG (encoding for glutamate) and the nucleotide sequence TGG that encodes for tryptophan at amino acid position 55 was changed to GAT (encoding for aspartate) through the use of Quick-ChangeTMXL site-directed mutagenesis kit (Stratagene, La Jolla, Calif.) as described by the manufacturer and confirmed by sequencing. FL-J6/JFH-5′C19Rluc2AUbi, which is a monocistronic, full-length HCV genome that expresses Renilla luciferase (Rluc) and was derived from the previously described infectious genotype 2a HCV genome J6/JFH1.
(§1) Antiviral Assays of Compounds. Subconfluent Huh7.5 cells were trypsinized and collected by centrifugation at 700 g for 5 min. The cells were then washed three times in ice-cold RNasefree PBS buffer (BioWhittaker) and resuspended at 1.5×10^7 cells·ml^−1 in PBS buffer. Wild-type FL-J6/JFH-5′C19Rluc2AUbi and Bart79I-luc RNAs for electroporation were generated by in vitro transcription of XbaI (FL-J6/JFH-5′C19Rluc2AUbi) and ScaI (Bart791-luc)-linearized DNA templates using the T7 MEGAscript kit (Ambion), followed by phenol-chloroform purification and DEPC water suspension, 5 μg of RNA were mixed with 400 μl of washed Huh7.5 cells in a 2-mm-gap cuvette (BTX) and immediately pulsed (0.82 kV (FL-J6/JFH-5′C19Rluc2AUbi) and 0.68 kV (Bart79I-luc), five […] pulses) with a BTX-830 electroporator. After 10 min recovery at 25° C., pulsed cells were diluted into 20 ml of pre-warmed growth medium. Cells from several electroporations were pooled to a common stock and seeded in 96-well plates (17,000-20,000 cells per well). After 24 hr, compounds were added to the cells and media changes were performed daily with fresh compounds. After 72 hr of treatment, cells were incubated for 2 hr at 37° C. in the presence of 10% Alamar Blue reagent (TREK Diagnostic Systems) to assess for cytotoxicity. Plates were then scanned and fluorescence was detected by using a FLEXstation II 384 (Molecular Devices). The signal was normalized relative to untreated samples. Viral RNA replication was determined using Renilla (FL-J6/JFH-5′C19Rluc2AUbi) or firefly (Bart791-luc) luciferase assays, according to the manufacturer's (Promega) directions. The same samples subjected to the viability assay described below were analyzed in this assay. According to the manufacturer protocol, cells were washed with PBS buffer and shaken at room temperature for 15 min in 20 μl of lysis buffer. Reporter assays were performed directly in the wells of the culture plates by injecting 100 μl of the assay substrate into each well. Luminescence was measured over 10 seconds with a 2-second delay using a Berthold LB 96 V luminometer. Signal was normalized relative to untreated samples or samples grown in the presence of the corresponding concentration of DMSO. Experiments were repeated three times, each time with 4 replicates.

Huh7.5 cells = experiment: Alamar Blue cell viability assay; type: cell-based, human
Method: as §1, with “Plates were then scanned and fluorescence was detected by using a FLEXstation II 384 (Molecular Devices).” left out

hERG = hERG (Homo sapiens, UniProt Q12809); experiment: hERG IC50
HCV 1b RNA replicon = experiment: 1b HCV RNA replicon assay, Huh7 cell line with stable luciferase reporter; type: cell-based, Hepatitis C Virus genotype 1b; conditions: Huh7, stable LUC reporter

Sequence of hERG (Q12809 whole entry): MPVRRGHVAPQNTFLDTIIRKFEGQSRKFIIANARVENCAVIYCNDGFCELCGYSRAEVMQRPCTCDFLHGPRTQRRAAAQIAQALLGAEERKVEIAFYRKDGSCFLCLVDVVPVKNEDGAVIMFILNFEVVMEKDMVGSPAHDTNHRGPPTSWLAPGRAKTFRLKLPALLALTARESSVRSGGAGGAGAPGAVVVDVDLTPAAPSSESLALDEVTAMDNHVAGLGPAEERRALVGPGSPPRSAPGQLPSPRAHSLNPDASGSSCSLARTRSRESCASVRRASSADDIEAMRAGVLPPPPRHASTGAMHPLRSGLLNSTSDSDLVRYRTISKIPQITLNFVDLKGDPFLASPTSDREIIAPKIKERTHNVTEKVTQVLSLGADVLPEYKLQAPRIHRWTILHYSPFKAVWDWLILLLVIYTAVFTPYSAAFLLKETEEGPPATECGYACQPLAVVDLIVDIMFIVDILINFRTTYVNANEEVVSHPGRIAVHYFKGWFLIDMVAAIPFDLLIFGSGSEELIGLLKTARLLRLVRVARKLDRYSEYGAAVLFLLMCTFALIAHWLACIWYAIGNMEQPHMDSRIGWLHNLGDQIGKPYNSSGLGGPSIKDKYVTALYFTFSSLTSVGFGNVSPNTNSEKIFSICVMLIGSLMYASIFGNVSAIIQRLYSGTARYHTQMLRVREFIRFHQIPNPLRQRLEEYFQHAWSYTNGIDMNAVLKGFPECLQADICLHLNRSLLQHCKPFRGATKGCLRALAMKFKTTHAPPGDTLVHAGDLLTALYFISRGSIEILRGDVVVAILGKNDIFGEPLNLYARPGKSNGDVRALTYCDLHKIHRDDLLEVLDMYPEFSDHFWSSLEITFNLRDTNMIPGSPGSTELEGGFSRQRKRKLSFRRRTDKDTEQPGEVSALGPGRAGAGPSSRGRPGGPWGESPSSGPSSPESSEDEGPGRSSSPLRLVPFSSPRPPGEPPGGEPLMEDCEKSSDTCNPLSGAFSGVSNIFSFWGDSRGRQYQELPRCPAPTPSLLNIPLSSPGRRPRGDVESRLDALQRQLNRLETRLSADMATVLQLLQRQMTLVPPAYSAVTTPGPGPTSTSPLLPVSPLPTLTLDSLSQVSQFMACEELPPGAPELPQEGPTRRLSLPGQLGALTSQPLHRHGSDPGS

## CC(C)CN(C)c1nc(N)c(C(=O)Nc2cccnc2)nc1Cl.Cl [ID 202, 3-amino-6-chloro-5-(isobutyl(methyl)amino)-N-(pyridin-3-yl)pyrazine-2-carboxamide hydrochloride]
2a HCV RNA replicon
  activity at 5 µM: 6%
  activity at 10 µM: 4%
Huh7.5 cells; 5 μM
  Cell Viability (%), alamar blue: 48%
Huh7.5 cells; 10 μM
  Cell Viability (%), alamar blue: 43%
hERG
  IC50: 1.5 µM

## CC(C)CN(C)c1nc(N)c(C(=O)NC2CCCNC2)nc1Cl.O=C(O)C(F)(F)F (centres unmarked) [ID 312, 3-amino-6-chloro-5-(isobutyl(methyl)amino)-N-(piperidin-3-yl)pyrazine-2-carboxamide 2,2,2-trifluoroacetate]
2a HCV RNA replicon
  activity at 5 µM: 21%
  activity at 10 µM: 9%
Huh7.5 cells; 5 μM
  Cell Viability (%), alamar blue: 76%
Huh7.5 cells; 10 μM
  Cell Viability (%), alamar blue: 53%
HCV 1b RNA replicon; Hepatitis C virus, Huh-7
  IC50: 44 µM
hERG
  IC50: 4 µM

## Cc1ccncc1NC(=O)c1nc(Cl)c(N2CCCCC2)nc1N [ID 415, 3-amino-6-chloro-N-(4-methylpyridin-3-yl)-5-(piperidin-1-yl)pyrazine-2-carboxamide 2,2,2-trifluoroacetate]
2a HCV RNA replicon
  activity at 5 µM: 27%
  activity at 10 µM: 10%
Huh7.5 cells; 5 μM
  Cell Viability (%), alamar blue: 71%
Huh7.5 cells; 10 μM
  Cell Viability (%), alamar blue: 65%
HCV 1b RNA replicon
  1b assay IC50: inactive

## Cc1ccncc1NC(=O)c1nc(Cl)c(NCC(C)C)nc1N [ID 464, 3-amino-6-chloro-5-(isobutylamino)-N-(4-methylpyridin-3-yl)pyrazine-2-carboxamide 2,2,2-trifluoroacetate]
2a HCV RNA replicon
  activity at 5 µM: 64%
  activity at 10 µM: 44%
Huh7.5 cells; 5 μM
  Cell Viability (%), alamar blue: 95%
Huh7.5 cells; 10 μM
  Cell Viability (%), alamar blue: 85%
hERG
  IC50: > 10 µM

## Cc1ccncc1NC(=O)c1nc(Cl)c(N(C)c2ccccc2)nc1N [ID 465, 3-amino-6-chloro-5-(methyl(phenyl)amino)-N-(4-methylpyridin-3-yl)pyrazine-2-carboxamide 2,2,2-trifluoroacetate]
2a HCV RNA replicon
  activity at 5 µM: 60%
  activity at 10 µM: 31%
Huh7.5 cells; 5 μM
  Cell Viability (%), alamar blue: 89%
Huh7.5 cells; 10 μM
  Cell Viability (%), alamar blue: 78%
hERG
  IC50: > 10 µM
